From PMC8717366, “Synthesis and Pharmacological Characterization of Visabron, a Backbone Cyclic Peptide Dual Antagonist of α4β1 (VLA-4)/α9β1 Integrin for Therapy of Multiple Sclerosis” (JACS Au, 2021)
Numbered stars: 1 amine (or outer) side, 2 acyl side, 3 side chain; on linkers, the order of the positions; unused ones are H or OH. Bridge positions count the residues as written; N and C are the ends. Square brackets hold non-standard residues; d marks the D form. Peptide text beside a SMILES is read from it. N(2-Aminoethyl)Gly = O=C(CN(CCN[*:3])[*:1])[*:2]; CO = O=C([*:1])[*:2]

Columns and labels:
[1] = Immunogenicity, antibody titer by ELISA in BALB/c mice; format: in vivo, BALB/c male mice; details: 40 days, Figure 8
Experimental: Figure 8 Antibody titer test in BALB/c mice, 40 days post intraperitoneal administration with natalizumab (18 mg/kg), visabron c (2–2) (150 mg/kg) alone, and administered together with Complete Freund’s Adjuvant (visabron c (2–2) + CFA), as compared to preimmune control serum. The results represent the mean ± SEM (n = 6) of optical absorbance (OD 490 nm) in ELISA. *p ≤ 0.01 compared to control.
BALB/c male mice, aged 60 days (22 gr) were divided into three groups each containing six mice. The mice were immunized intraperitoneal with 0.5 mL of Visabron c (2–2) (150 mg/kg), 0.25 mL Visabron c (2–2) (150 mg/kg) + 0.25 mL of Freund‘s complete adjuvant, and 0.25 mL natalizumab (18 mg/kg). After 14 days of the first inoculation, the mice received a booster with 0.5 mL of the preparations mentioned above. To verify the presence of antibodies against visabron c (2–2) or natalizumab, the serum collected from mice tail blood was tested 40 days after the first inoculation by indirect ELISA using visabron c (2–2) or natalizumab antigens immobilized to the plate (25 μg per well, diluted in 20 mM carbonate buffer, pH 9.6 overnight incubated at 4 °C). […] The reaction was stopped with 12.5% H2SO4, and absorbance was measured at 490 nm. The results were considered significant when the absorbance was at least two times higher than that obtained with the preimmune serum.

[2] = system: Jurkat cell migration across TNFα-stimulated HUVEC; test: Jurkat transmigration across TNFα-stimulated HUVEC monolayer; format: cell-based, human; details: at 24 h; 1 mg/mL of antagonist; Figure 2B,C
Experimental: Figure 2 Inhibitory effects of visabron c (4–4) on adhesion (A) and transmigration (B, C) of Jurkat cells through the monolayer of TNFα-activated HUVEC. (A) HUVEC were cultured on 96 well plates to 90% confluence in EGM-2 complete media. TNF-α (10 ng/mL) was added to each well for 16 h. Jurkat cells were labeled with calcein-AM ([…]) by 1 h incubation at 37 °C. After three washes, Jurkat cells (1 × 10^5 cells per mL) were mixed with appropriate concentrations of visabron or 10 μM visabres (inset) in EGM-2 media without FBS and supplements (growth factors) and incubated for 15 min at room temperature. […] Cell cultures extracts were measured using the fluorescence plate reader. […] Chambers were incubated at 37 °C, and measurement of fluorescence was performed at the indicated time points using a fluorescence plate reader with a set up bottom measurement option and using FITC filters. […]
trans-Endothelial leukocyte migration was assessed as follows: HUVEC cells were plated onto collagen type IV (5 μg/mL) coated polycarbonate inserts (Transwell, Costar, Cambridge, MA; diameter, 6.5 mm; pore size, 8 μm for a 24-well plate) in serum-containing endothelial cell growth medium and allowed to grow to confluence over 72 h. […] The medium and all washes were pooled, and the fluorescence in each well was quantified with a SPECTRAFluor Plus plate reader at λex = 485 nm and λem = 530 nm. […]

Compound | Antibody production (ELISA vs preimmune serum) ([1]; 150 mg/kg intraperitoneal alone) | Antibody production (ELISA vs preimmune serum) ([1]; 150 mg/kg intraperitoneal together with Freund's complete adjuvant) | Inhibition of Jurkat migration across TNFα-stimulated HUVEC [2]
CSCC[C@@H]1NC(=O)[C@H]([C@@H](C)O)NC(=O)CN(C(=O)[C@@H](N)CCCCN)CCNC(=O)NCCN(CC(=O)N[C@@H](CC(C)C)C(N)=O)C(=O)[C@H](CC(=O)O)NC(=O)[C@H](CC(C)C)NC1=O [visabron c (2–2)] (H-K[N(2-Aminoethyl)Gly]TMLD[N(2-Aminoethyl)Gly]L-NH2; linker 2-7 via CO) | did not induce antibody production | did not induce antibody production | –
natalizumab: clinical-grade monoclonal antibody anti-α4β1 produced by Biogen Co. [reference compound] | – | – | similar
